# Assay results: patent publication US20230002352A1, “SULFONAMIDE DERIVATIVES AS CTPS1 INHIBITORS” (Step Pharma S.A.S., priority 2019, published 2023)
# Biological target: T1, human CTPS1 (Homo sapiens, UniProt P17812)
# T1 construct: purchased Proteros biostructures GmbH
# T1 sequence (P17812 1-591): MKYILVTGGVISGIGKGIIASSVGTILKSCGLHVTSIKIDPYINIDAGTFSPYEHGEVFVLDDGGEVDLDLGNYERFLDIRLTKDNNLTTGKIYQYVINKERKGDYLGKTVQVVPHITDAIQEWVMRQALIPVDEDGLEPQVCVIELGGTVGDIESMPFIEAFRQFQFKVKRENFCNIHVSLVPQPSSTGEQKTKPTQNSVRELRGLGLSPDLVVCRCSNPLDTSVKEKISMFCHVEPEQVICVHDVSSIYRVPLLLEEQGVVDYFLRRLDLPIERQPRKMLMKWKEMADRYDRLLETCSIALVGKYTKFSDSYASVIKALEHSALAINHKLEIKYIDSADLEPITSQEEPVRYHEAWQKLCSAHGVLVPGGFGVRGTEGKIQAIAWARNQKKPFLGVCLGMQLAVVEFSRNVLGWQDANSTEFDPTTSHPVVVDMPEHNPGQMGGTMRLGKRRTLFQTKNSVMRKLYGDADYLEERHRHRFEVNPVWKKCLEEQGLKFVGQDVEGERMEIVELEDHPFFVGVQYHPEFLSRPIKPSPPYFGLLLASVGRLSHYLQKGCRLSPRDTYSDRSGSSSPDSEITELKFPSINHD
# Assay: Human CTPS1 enzyme inhibition (ADP-Glo Max assay)
# Format: biochemical
# Conditions: Table 23; ADP-Glo Max assay; read-out: CTPS1 (Human CTPS1 Enzyme Inhibition data grouped by potency range, IC50)
# Procedure: Biological Example 1—Human CTPS1 Enzyme Inhibition
# The enzyme inhibitory activities of compounds invented against the target of interest were determined using the ADP-Glo™ Max assay (Promega, UK). Assays for human CTPS1 were performed in 1× assay buffer containing 50 mM Tris, 10 mM MgCl2, 0.01% Tween-20, pH to 8.0 accordingly. Finally, immediately before use, L-cysteine was added to the 1× assay buffer to a final concentration of 2 mM. All reagents are from Sigma-Aldrich unless specified otherwise. Human full length active C-terminal FLAG-Hiss-tag CTPS1 (UniProtKB-P17812, CTPS[1-591]-[…]) was obtained from Proteros biostructures GmbH.
# 3× human CTPS1 protein was prepared in 1× assay buffer to the final working protein concentration required for the reaction. A 2 uL volume per well of 3× human CTPS1 protein was mixed with 2 uL per well of 3× test compound (compound prepared in 1× assay buffer to an appropriate final 3× compound concentration respective to the concentration response curve designed for the compounds under test) for 10 minutes at 25° C. The enzymatic reaction was then initiated by addition of a 2 uL per well volume of a pre-mixed substrate mix (UltraPure ATP from ADP-Glo™ Max kit (0.31 mM), GTP (0.034 mM), UTP (0.48 mM) and L-glutamine (0.186 mM)) and the mixture was incubated for an appropriate amount of time within the determined linear phase of the reaction at 25° C. under sealed plate conditions with constant agitation at 500 revolutions per minute (rpm). ADP-Glo™ Max reagent was added for 60 minutes (6 μL per well) and subsequently ADP-Glo™ Max development reagent was added for 60 minutes (12 uL per well) prior to signal detection in a microplate reader (EnVision® Multilabel Reader, Perkin Elmer). Following each reagent addition over the course of the assay, assay plates were pulse centrifuged for 30 seconds at 500 rpm.
# In all cases, the enzyme converts ATP to ADP and the ADP-Glo™ Max reagent subsequently depletes any remaining endogenous ATP in the reaction system. The ADP-Glo™ Max detection reagent converts the ADP that has been enzymatically produced back into ATP and using ATP as a substrate together with luciferin for the enzyme luciferase, light is generated which produces a detectable luminescence. […] The percentage inhibition produced by each concentration of compound was calculated using the equation shown below: […]
# Percentage inhibition was then plotted against compound concentration, and the 50% inhibitory concentration (IC50) was determined from the resultant concentration-response curve.
row,SMILES,IC50 [nM]
1,"CCOc1cncc(-c2ccc(NC(=O)C(F)(CC)c3ccnc(NS(C)(=O)=O)n3)nc2)n1 (single isomer, unassigned) [Example P165]",≤ 100
2,"CCOc1cncc(-c2ccc(C(=O)NC(CC)c3cncc(NS(=O)(=O)C4CC4)n3)c(F)c2)n1 (single isomer, unassigned) [Example P225]",≤ 100
3,"COc1cncc(-c2ccc(NC(=O)C(C)(C)c3ccnc(NS(=O)(=O)C4CC4)n3)cc2)n1 [Example P3, 2-(2-(cyclopropanesulfonamido)pyrimidin-4-yl)-N-(4-(6-methoxypyrazin-2-yl)phenyl)-2-methylpropanamide]",≤ 100
4,"O=C(Cc1ccnc(NS(=O)(=O)C2CC2)n1)Nc1ccc(-c2cncc(C(F)(F)F)n2)cc1 [Example P8, 2-(2-(Cyclopropanesulfonamido)pyrimidin-4-yl)-N-(4-(6-(trifluoromethyl)pyrazin-2-yl)phenyl)acetamide]",≤ 100
5,CCOc1cncc(-c2ccc(NC(=O)C(CC)(CC)c3ccnc(NS(=O)(=O)C4CC4)n3)cc2)n1 [Example P10],≤ 100
6,O=C(Cc1ccnc(NS(=O)(=O)C2CC2)n1)Nc1ccc(-c2cncc(C(F)(F)F)n2)cc1F [Example P11],≤ 100
7,O=C(Cc1ccnc(NS(=O)(=O)C2CC2)n1)Nc1ccc(-c2cncc(C(F)(F)F)c2)cc1 [Example P13],100 to 1000
8,O=C(Cc1ccnc(NS(=O)(=O)C2CC2)n1)Nc1ccc(-c2cncc(OCC(F)(F)F)c2)cc1 [Example P14],100 to 1000
9,O=C(Cc1nc(NS(=O)(=O)C2CC2)ncc1F)Nc1ccc(-c2cccnc2)cc1 [Example P15],1000 to 10000
10,O=C(Cc1ccnc(NS(=O)(=O)C2CC2)n1)Nc1ccc(-c2cncc(OCC(F)(F)F)n2)cc1 [Example P20],≤ 100
11,COc1cncc(-c2ccc(NC(=O)C(C)(C)c3ccnc(NS(=O)(=O)C4CCC4)n3)cc2)n1 [Example P25],100 to 1000
12,CCOc1cncc(-c2ccc(NC(=O)C(C)(C)c3ccnc(NS(=O)(=O)C4CCC4)n3)cc2)n1 [Example P26],100 to 1000
13,CCOc1cncc(-c2cnc(NC(=O)C(C)(C)c3ccnc(NS(=O)(=O)C4CC4)n3)c(F)c2)n1 [Example P27],≤ 100
14,CCOc1cncc(-c2ccc(NC(=O)C(C)(C)c3ccnc(NS(=O)(=O)C4CC4)n3)nc2)c1 [Example P28],100 to 1000
15,CC(C)(C(=O)Nc1ccc(-c2cccnc2)cn1)c1ccnc(NS(=O)(=O)C2CC2)n1 [Example P29],1000 to 10000
16,CC(C)(C(=O)Nc1ccc(-c2cncc(C(F)(F)F)n2)cn1)c1ccnc(NS(=O)(=O)C2CC2)n1 [Example P30],≤ 100
17,CC(C)(C(=O)Nc1ccc(-c2cncc(OC3CC3)n2)cn1)c1ccnc(NS(=O)(=O)C2CC2)n1 [Example P32],≤ 100

row,SMILES,IC50 [nM]
1,CC(C)(C(=O)Nc1ccc(-c2cccnc2)cc1F)c1ccnc(NS(=O)(=O)C2CC2)n1 [Example P36],1000 to 10000
2,CCOc1cncc(-c2cc(F)c(NC(=O)C(C)(C)c3ccnc(NS(=O)(=O)C4CC4)n3)cc2C)n1 [Example P40],100 to 1000
3,Cc1cc(-c2cncc(C(F)(F)F)n2)ccc1NC(=O)C(C)(C)c1ccnc(NS(=O)(=O)C2CC2)n1 [Example P43],100 to 1000
4,CCOc1cncc(-c2ccc(NC(=O)C(C)(C)c3ccnc(NS(=O)(=O)C4CC4)n3)c(C)c2C)n1 [Example P44],100 to 1000
5,CCOc1cncc(-c2cc(C)c(NC(=O)C(C)(C)c3ccnc(NS(=O)(=O)C4CC4)n3)cc2F)n1 [Example P45],100 to 1000
6,CCOc1cncc(-c2cc(C)c(NC(=O)C(C)(C)c3ccnc(NS(=O)(=O)C4CC4)n3)cc2C)n1 [Example P46],100 to 1000
7,CCOc1cncc(-c2cc(OC)c(NC(=O)C(C)(C)c3ccnc(NS(=O)(=O)C4CC4)n3)cc2F)n1 [Example P48],100 to 1000
8,CC(C)(C(=O)Nc1ccc(-c2cncc(Cl)c2)cc1)c1ccnc(NS(=O)(=O)C2CC2)n1 [Example P51],100 to 1000
9,CC(C)(C(=O)Nc1ccc(-c2cncc(C#N)c2)cc1)c1ccnc(NS(=O)(=O)C2CC2)n1 [Example P52],100 to 1000
10,CC(C)(C(=O)Nc1ccc(-c2cncc(F)c2)cc1)c1ccnc(NS(=O)(=O)C2CC2)n1 [Example P53],100 to 1000
11,Cc1cncc(-c2ccc(NC(=O)C(C)(C)c3ccnc(NS(=O)(=O)C4CC4)n3)cc2)c1 [Example P54],100 to 1000
12,CC(C)(C(=O)Nc1ccc(-c2cncc(OC(F)F)c2)cc1)c1ccnc(NS(=O)(=O)C2CC2)n1 [Example P55],≤ 100
13,COc1cncc(-c2ccc(NC(=O)C(C)(C)c3ccnc(NS(=O)(=O)C4CC4)n3)cc2)c1 [Example P56],100 to 1000
14,CC(C)Oc1cncc(-c2ccc(NC(=O)C(C)(C)c3ccnc(NS(=O)(=O)C4CC4)n3)cc2)c1 [Example P58],100 to 1000
15,CC(C)(C(=O)Nc1ccc(-c2cccc(C(F)(F)F)c2)cc1)c1ccnc(NS(=O)(=O)C2CC2)n1 [Example P60],1000 to 10000
16,CC(C)(C(=O)Nc1ccc(-c2cccc(Cl)c2)cc1)c1ccnc(NS(=O)(=O)C2CC2)n1 [Example P61],1000 to 10000

# The next lines start with the values.
row,IC50 [nM],SMILES
1,100 to 1000,"CC(C)(C(=O)Nc1ccc(-c2cncc(C(F)(F)F)c2)cc1)c1ccnc(NS(=O)(=O)C2CC2)n1 [Example P4, 2-(2-(Cyclopropanesulfonamido)pyrimidin-4-yl)-2-methyl-N-(4-(5-(trifluoromethyl)pyridin-3-yl)phenyl)propanamide]"
2,1000 to 10000,"Cc1cncc(-c2ccc(NC(=O)C(C)(C)c3ccnc(NS(C)(=O)=O)n3)c(C)c2)n1 [Example P5, 2-Methyl-N-(2-methyl-4-(6-methylpyrazin-2-yl)phenyl)-2-(2-(methylsulfonamido)pyrimidin-4-yl)propanamide]"
3,1000 to 10000,O=C(Cc1ccnc(NS(=O)(=O)C2CC2)n1)Nc1ccc(-c2ccccc2)cc1 [Example P17]
4,≤ 100,COc1cncc(-c2ccc(NC(=O)Cc3ccnc(NS(=O)(=O)C4CC4)n3)cc2)n1 [Example P19]
5,100 to 1000,CCOc1cncc(-c2ccc(NC(=O)C(C)(C)c3ccnc(NS(=O)(=O)C4CCC4)n3)nc2)n1 [Example P22]
6,100 to 1000,CC(C)Oc1cncc(-c2ccc(NC(=O)C(C)(C)c3ccnc(NS(=O)(=O)C4CCC4)n3)c(F)c2)n1 [Example P23]
7,100 to 1000,CCOc1cncc(-c2ccc(NC(=O)C(C)(C)c3ccnc(NS(=O)(=O)C4CCC4)n3)c(C)c2)n1 [Example P24]
8,≤ 100,CCOc1cncc(-c2ccc(NC(=O)C(C)(C)c3ccnc(NS(=O)(=O)C4CC4)n3)c(Cl)c2)n1 [Example P33]
9,100 to 1000,CC(C)Oc1cncc(-c2ccc(NC(=O)C(C)(C)c3ccnc(NS(=O)(=O)C4CC4)n3)c(F)c2)c1 [Example P35]
10,≤ 100,CC(C)(C(=O)Nc1ccc(-c2cncc(C(F)(F)F)n2)cc1F)c1ccnc(NS(=O)(=O)C2CC2)n1 [Example P37]
11,≤ 100,CCOc1cncc(-c2cc(F)c(NC(=O)C(C)(C)c3ccnc(NS(=O)(=O)C4CC4)n3)c(F)c2)n1 [Example P41]
12,1000 to 10000,CC(C)(C(=O)Nc1ccc(-c2cnccn2)cc1F)c1ccnc(NS(=O)(=O)C2CC2)n1 [Example P42]
13,≤ 100,CCOc1cncc(-c2ccc(NC(=O)C(C)(C)c3ccnc(NS(=O)(=O)C4CC4)n3)c(OC(F)(F)F)c2)n1 [Example P47]
14,≤ 100,CCOc1cncc(-c2ccc(NC(=O)C(C)(C)c3ccnc(NS(=O)(=O)C4CC4)n3)c(OC)c2)n1 [Example P49]
15,1000 to 10000,CC(C)(C(=O)Nc1ccc(-c2cncnc2)cc1)c1ccnc(NS(=O)(=O)C2CC2)n1 [Example P50]
16,100 to 1000,CCOc1cncc(-c2ccc(NC(=O)C(C)(C)c3ccnc(NS(=O)(=O)C4CC4)n3)cc2)c1 [Example P57]
